From US20040043084A1, “Method of enhancing biological activity of plant extracts” (priority 2002, published 2004)

Experiments:
skin = assay: Skin exfoliation via D-Squame discs and image analysis; format: in vivo, human; conditions: tested previously in a base, activity over the placebo, 1.0% active in formula
Excerpt: The subjects included in this study were 120 females between the ages of 21 and 65 years, all meeting the screening criteria of good health and not being pregnant or lactating. The subjects reported for testing without moisturizers or any other products on their hands and baseline measurements were taken. They were randomly assigned to one of the following eight treatment groups. They were given the product to take home and self-administer to their right hand only, twice a day in the morning after washing and in the evening at least 15 minutes before bedtime for four weeks. The left hand served as the untreated control site. The subjects were only allowed to use the test product and specifically log its use in a daily diary provided. At the end of two and four weeks the subjects returned for testing without applying the product for at least 12 hours and they were re-evaluated under the same conditions. Skin Exfoliation via D-Squame Discs Method and Image Analysis Four D-Squame discs were firmly and evenly pressed on the face and the back of each hand with a hand held uniform pressure device and removed by gently pulling away from the skin. The D-Squame discs were mounted on clear microscope slides and labeled according to panelist name and visit. Desquamation was evaluated from the D-Squame discs via the image analyzer. Skin evaluation was carried out before treatment, and after two and four weeks of treatment. The OPTIMA image analyzer was used to evaluate skin flakiness. The D-Squame samples containing the stratum corneocytes are placed under a camera on top of a light table and each image is imported into the image analyzer. The average Gray Value corresponding to the sample density is measured. The denser the sample the higher the Gray value difference. Skin exfoliation was evaluated by measuring the amount of flakes removed from the skin surface using D-Squame discs and analyzing them via the IA method. In this study several ferment combinations of N-Acetyl D-Glucosamine and Mannose 6-Phosphate vs. the placebo, the broth and the ferment as controls, for their effect on skin desquamation. […] Another series of tests were conducted as described above. The concentration of N-acetyl D-glucosamine and mannose 6-phosphate was reduced by 10 fold without compromising their activity. Table 4 below summarizes the actual active concentrations used with a brief description along with their activity.

[1] = test system: UV induced peroxidation of lipids; assay: inhibition of UV induced peroxidation of lipids (liposomal assay, Pelle et al.); format: biochemical
Excerpt: Caffeine was subjected to bioconversion at concentration as indicated(w/v) in water or in a mixture of structured waters (I/S 60/40).
P. ulei is an equatorial plant known to have anti-inflammatory properties. A. purchyriminor is an equatorial plant containing inhibitors of PAF (Platelet Activating Factor). […] The untreated extracts at a concentration 1% each, are combined and diluted to 0.1% each and subjected to bioconversion.

SMILES | Decrease in Flakiness 2 wk (skin) | Decrease in Flakiness 4 wk (skin) | Inhibition of lipid peroxidation ([1]; Caffeine Concentration 0.05%) | Inhibition of lipid peroxidation ([1]; Caffeine Concentration 0.25%) | Inhibition of lipid peroxidation ([1]; Caffeine Concentration 0.5%) | also measured
O=C[C@@H](O)[C@@H](O)[C@H](O)[C@H](O)COP(=O)(O)O [1% Mannose 6-Phosphate, Mannose 6-Phosphate] | 22% | 29% | – | – | – | –
CC(=O)N[C@H]1C(O)O[C@H](CO)[C@@H](O)[C@@H]1O (stereo partly shown) [1% N-Acetyl Glucosamine, N-Acetyl Glucosamine] | 16% | 27% | – | – | – | –
Oc1ccc(C=Cc2cc(O)cc(O)c2)cc1 [Resveratrol Nonbioconverted, Resveratrol] | – | – | – | – | – | Anti-oxidant activity ([1]; Concentration of Resveratrol in S water 0.05%): 1.8%; Anti-oxidant activity ([1]; Concentration of Resveratrol in S water 0.25%): 8%; Anti-oxidant activity ([1]; Concentration of Resveratrol in S water 0.5%): 39%
Cn1c(=O)c2c(ncn2C)n(C)c1=O [Caffeine Non bioconverted H2O, Caffeine] | – | – | 30% | 54% | 66% | –
Cn1c(=O)c2c(ncn2C)n(C)c1=O [Caffeine Non bioconverted I/S water, Caffeine] | – | – | 24% | 58% | 66% | –
